# Measured values published in patent US20240101576A1, “HETEROCYCLIC INHIBITORS OF EGFR AND/OR HER2, FOR USE IN THE TREATMENT OF CANCER” (Scorpion Therapeutics, Inc., priority 2020, published 2024).
# pIC50: −log10 of the molar value.
# Legend:
# Type in all cases: cell-based
# [1] = target: T1, EGFR exon 20 SVD Ins D770_N771 (Ba/F3 cells) (Homo sapiens, UniProt P00533, INS770SVD); test: Inhibitor activity on EGFR-dependent cell growth (CellTiter-Glo, 72 h), Ba/F3 EGFR exon 20 SVD Ins; details: read-out: BaF3 SVD IC50
# T1 construct: expressed in transfected cells; host or cells: Ba/F3 (murine pro-B cells), retroviral transduction, puromycin selection, IL3-independent pool
# Method in brief: (§1)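 IC50s derive from a sigmoidal dose–response fit of CellTiter-Glo signal. The signal was normalised between […]-treated cells and cell-free medium. Ba/F3 mutant-EGFR cells, seeded at 400–800/well depending on the line, had 72 h of exposure to a 10-point, 3-fold compound series.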
# EGFR WT (Ba/F3 cells) = target: T2, EGFR WT (Ba/F3 cells) (Homo sapiens, UniProt P00533); test: Inhibitor activity on EGFR-dependent cell growth (CellTiter-Glo, 72 h), Ba/F3 EGFR WT; details: read-out: BaF3 WT IC50
# T2 construct: expressed in transfected cells; host or cells: Ba/F3 (murine pro-B cells), retroviral transduction, puromycin selection, maintained with EGF
# Method in brief: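 This growth assay used Ba/F3 cells that depend on wild-type EGFR and are kept in EGF without IL3. Compounds were made up as 10 mM DMSO stocks and diluted 3-fold over 10 points. 120 nL went onto 600 cells/well. After 72 hours, 40 μL CellTiter-Glo was added and luminescence read on EnVision after 30 min.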
# EGFR (CUTO14 cells) = EGFR (CUTO14 cells) (Homo sapiens, UniProt P00533); test: Inhibitor activity on EGFR phosphorylation (pEGFR AlphaLISA, 2 h), CUTO14 cells
# Method in brief: (§2)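 After a 2-hour exposure to compound (3-fold, 10-point series from 10 mM DMSO stock), cell lysates were assayed for pEGFR by AlphaLISA. Cells were retrovirally engineered, IL3-independent Ba/F3 lines expressing each EGFR mutant at 50K/well, or CUTO14 cells at 12.5K/well, giving IC50 values.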
# [2] = target: T3, EGFR exon 20 NPG Ins D770_N771 (Ba/F3 cells) (Homo sapiens, UniProt P00533, INS770NPG); test: Inhibitor activity on EGFR phosphorylation (pEGFR AlphaLISA, 2 h), Ba/F3 EGFR exon 20 NPG Ins
# T3 construct: expressed in transfected cells; host or cells: Ba/F3 (murine pro-B cells), retroviral transduction, puromycin selection, IL3-independent pool
# Method in brief: as §2
# [3] = target: T4, EGFR exon 20 ASV Ins V769_D770 (Ba/F3 cells) (Homo sapiens, UniProt P00533, INS769ASV); test: Inhibitor activity on EGFR phosphorylation (pEGFR AlphaLISA, 2 h), Ba/F3 EGFR exon 20 ASV Ins; details: EGFR phosphorylation, AlphaLISA, 2 hours; read-out: ASV IC50 (pEGFR)
# T4 construct: expressed in transfected cells; host or cells: Ba/F3 (murine pro-B cells), retroviral transduction, puromycin selection, IL3-independent pool
# T4 sequence (P00533 with tags, fused parts or gaps INS769ASV): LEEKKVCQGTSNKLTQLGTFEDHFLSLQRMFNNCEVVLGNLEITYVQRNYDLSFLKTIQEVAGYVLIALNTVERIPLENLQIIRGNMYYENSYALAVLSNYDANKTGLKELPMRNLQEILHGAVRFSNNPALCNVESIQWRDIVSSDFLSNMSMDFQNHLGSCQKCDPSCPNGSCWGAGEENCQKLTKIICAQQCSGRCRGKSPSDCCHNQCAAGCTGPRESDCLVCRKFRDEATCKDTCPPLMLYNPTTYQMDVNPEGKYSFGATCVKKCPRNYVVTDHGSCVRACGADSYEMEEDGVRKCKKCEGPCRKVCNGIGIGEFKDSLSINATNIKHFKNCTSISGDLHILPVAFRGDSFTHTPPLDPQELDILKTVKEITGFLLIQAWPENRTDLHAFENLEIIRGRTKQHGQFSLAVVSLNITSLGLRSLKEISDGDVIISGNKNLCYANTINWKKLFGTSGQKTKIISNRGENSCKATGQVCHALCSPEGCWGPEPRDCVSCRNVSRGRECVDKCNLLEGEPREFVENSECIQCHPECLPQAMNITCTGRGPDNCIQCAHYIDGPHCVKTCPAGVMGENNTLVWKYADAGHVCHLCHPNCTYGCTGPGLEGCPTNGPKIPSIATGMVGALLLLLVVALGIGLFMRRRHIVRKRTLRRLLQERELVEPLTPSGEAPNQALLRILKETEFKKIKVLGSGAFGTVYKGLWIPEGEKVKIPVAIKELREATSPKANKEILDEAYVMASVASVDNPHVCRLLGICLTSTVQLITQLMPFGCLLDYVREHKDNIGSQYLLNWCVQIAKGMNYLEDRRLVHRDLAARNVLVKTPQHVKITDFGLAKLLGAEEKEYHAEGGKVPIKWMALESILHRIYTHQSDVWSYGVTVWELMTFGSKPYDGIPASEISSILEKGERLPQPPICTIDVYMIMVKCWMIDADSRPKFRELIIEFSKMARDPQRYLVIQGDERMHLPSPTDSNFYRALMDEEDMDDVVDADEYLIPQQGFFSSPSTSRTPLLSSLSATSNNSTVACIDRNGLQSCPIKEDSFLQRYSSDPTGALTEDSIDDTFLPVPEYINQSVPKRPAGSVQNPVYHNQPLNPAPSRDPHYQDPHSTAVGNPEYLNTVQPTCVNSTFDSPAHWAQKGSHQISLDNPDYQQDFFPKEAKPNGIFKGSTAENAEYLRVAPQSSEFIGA
# Method in brief: as §2
# [4] = target: T4, EGFR exon 20 ASV Ins V769_D770 (Ba/F3 cells); test: Inhibitor activity on EGFR-dependent cell growth (CellTiter-Glo, 72 h), Ba/F3 EGFR exon 20 ASV Ins; details: read-out: BaF3 ASV IC50
# Method in brief: as §1
# [5] = target: T5, EGFR exon 20 FQEA Ins A763_V764 (Ba/F3 cells) (Homo sapiens, UniProt P00533, INS763FQEA); test: Inhibitor activity on EGFR-dependent cell growth (CellTiter-Glo, 72 h), Ba/F3 EGFR exon 20 FQEA Ins; details: read-out: BaF3 FQEA IC50
# T5 construct: expressed in transfected cells; host or cells: Ba/F3 (murine pro-B cells), retroviral transduction, puromycin selection, IL3-independent pool
# T5 sequence (P00533 with tags, fused parts or gaps INS763FQEA): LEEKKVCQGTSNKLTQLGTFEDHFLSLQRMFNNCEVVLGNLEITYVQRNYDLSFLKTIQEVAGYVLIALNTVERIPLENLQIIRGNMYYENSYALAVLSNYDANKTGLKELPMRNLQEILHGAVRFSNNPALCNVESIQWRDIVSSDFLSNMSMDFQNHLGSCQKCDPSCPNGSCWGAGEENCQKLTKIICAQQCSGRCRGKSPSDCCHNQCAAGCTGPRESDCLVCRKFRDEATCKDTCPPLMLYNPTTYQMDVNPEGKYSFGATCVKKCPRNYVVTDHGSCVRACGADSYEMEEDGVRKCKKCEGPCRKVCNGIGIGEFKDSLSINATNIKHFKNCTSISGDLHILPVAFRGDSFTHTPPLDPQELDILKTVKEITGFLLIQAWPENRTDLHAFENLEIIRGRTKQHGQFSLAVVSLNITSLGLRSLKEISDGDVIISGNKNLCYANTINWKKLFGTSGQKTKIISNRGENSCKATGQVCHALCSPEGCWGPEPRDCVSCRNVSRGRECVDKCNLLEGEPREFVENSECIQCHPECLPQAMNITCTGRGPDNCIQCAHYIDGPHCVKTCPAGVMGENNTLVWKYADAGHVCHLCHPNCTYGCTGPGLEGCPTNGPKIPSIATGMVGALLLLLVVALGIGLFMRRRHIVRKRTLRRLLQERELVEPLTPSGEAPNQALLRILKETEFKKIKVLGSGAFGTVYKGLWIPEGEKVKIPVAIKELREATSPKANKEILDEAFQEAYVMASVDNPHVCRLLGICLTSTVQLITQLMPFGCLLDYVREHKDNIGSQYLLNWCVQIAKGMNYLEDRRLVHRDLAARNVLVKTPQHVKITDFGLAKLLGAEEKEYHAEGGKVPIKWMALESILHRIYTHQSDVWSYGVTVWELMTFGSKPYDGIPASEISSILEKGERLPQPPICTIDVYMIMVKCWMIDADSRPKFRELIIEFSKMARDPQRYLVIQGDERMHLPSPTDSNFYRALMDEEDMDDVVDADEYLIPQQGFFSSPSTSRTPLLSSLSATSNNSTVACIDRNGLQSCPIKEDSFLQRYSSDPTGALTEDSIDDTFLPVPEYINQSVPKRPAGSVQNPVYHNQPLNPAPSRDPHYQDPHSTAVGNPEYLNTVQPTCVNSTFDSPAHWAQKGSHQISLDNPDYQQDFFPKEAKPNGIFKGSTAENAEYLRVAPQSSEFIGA
# Method in brief: (§3)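 Compounds, serially diluted 3-fold over 10 points in DMSO and added at 120 nL per well, act on Ba/F3 EGFR-mutant cells for 72 h. Seeding is 800 (exon 19del, FQEA), 600 (L858R/C797S) or 400 (L858R) cells/well. CTG luminescence is fitted with a four-parameter logistic curve to give IC50.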
# [6] = target: T3, EGFR exon 20 NPG Ins D770_N771 (Ba/F3 cells); test: Inhibitor activity on EGFR-dependent cell growth (CellTiter-Glo, 72 h), Ba/F3 EGFR exon 20 NPG Ins; details: read-out: BaF3 NPG IC50
# Method in brief: as §1
# [7] = target: T1, EGFR exon 20 SVD Ins D770_N771 (Ba/F3 cells); test: Inhibitor activity on EGFR phosphorylation (pEGFR AlphaLISA, 2 h), Ba/F3 EGFR exon 20 SVD Ins
# Excerpt: Example B. Inhibitor Activity on EGFR phosphorylation (pEGFR)
# EGFR mutant Ba/F3 cells were generated by transduction with retrovirus containing vectors expressing EGFR L858R, EGFR exon 19del, EGFR L858R/C797S, EGFR exon 20 NPG Ins D770_N771, EGFR exon 20 ASV Ins V769_D770, or EGFR exon 20 SVD Ins D770_N771 genes along with a puromycin selection marker. Transduced cells are selected with puromycin for 7 days and are then be transferred into culture media without Interleukin 3 (IL3). Surviving cells are confirmed to express EGFR by Western blot and maintained as a pool. CUTO14 cells were obtained from Dr. Robert C. Doebele at the University of Colorado. The IC50 date are included in Table 6 and Table 7.
# 1.1 Cells are harvested from flask into cell culture medium and the cell number counted.
# 1.2 Cells are diluted with culture medium to the desired density and 40 μL of cell suspension is added into each well of 384-well cell culture plate and the seeding density is 50K cells/well (Ba/F3) or 12.5K cells/well (CUTO14).
# 2 Compound Preparation and Treatment
# 2.1 Test compounds are dissolved to 10 mM in a DMSO stock solution. 45 μL of stock solution is transferred to a 384 polypropylene plate (pp-plate). Perform 3-fold, 10-point dilution via transferring 15 μL compound into 30 μL DMSO using a TECAN (EVO200) liquid handler.
# 2.2 Spin plates at room temperature at 1,000 RPM for 1 minute.
# 2.3 Transfer 5 nL of diluted compound from compound source plate into the cell plate.
# 2.4 After compound treatment for 2 hours, perform pEGFR detection by AlphaLISA for compound treatment plates as described in “Detection” section.
# 3 Detection by pEGFR AlphaLISA (Perkin-Elmer)
# 3.1 Plates are removed from incubators and equilibrated at room temperature for 10 minutes, and media was removed
# 3.2 10 μL of lysis buffer is added and plates shaken at 600 rpm for 1 hr.
# 3.3 Prepare acceptor mix just before use and dispense 5 μL of acceptor mix to all the wells. Shake 350 rpm for Ihr in the dark
# 3.4 Prepare donor mix under low light conditions prior to use. Dispense 5 μL of donor mix to all the wells. Mix well on the shaker, seal and wrap in aluminum foil and incubate 1.5 hrs at room temperature in the dark
# 3.5 Transfer 18.5 μL mixture to OptiPlate 384, and read using an Envision. The IC50 date were included in Table 6 and Table 7.
# [8] = target: T6, EGFR exon 19del (Ba/F3 cells) (Homo sapiens, UniProt P00533); test: Inhibitor activity on EGFR-dependent cell growth (CellTiter-Glo, 72 h), Ba/F3 EGFR exon 19del; details: Ba/F3 EGFR exon 19del cell growth, read-out: BaF3 Del19 IC50
# Method in brief: as §3
# EGFR L858R (Ba/F3 cells) [9] = target: T7, EGFR L858R (Ba/F3 cells) (Homo sapiens, UniProt P00533, L858R); test: Inhibitor activity on EGFR-dependent cell growth (CellTiter-Glo, 72 h), Ba/F3 EGFR L858R; details: read-out: BaF3 L858R IC50
# T7 construct: expressed in transfected cells; host or cells: Ba/F3 (murine pro-B cells), retroviral transduction, puromycin selection, IL3-independent pool
# T7 sequence (P00533 25-1210 L858R): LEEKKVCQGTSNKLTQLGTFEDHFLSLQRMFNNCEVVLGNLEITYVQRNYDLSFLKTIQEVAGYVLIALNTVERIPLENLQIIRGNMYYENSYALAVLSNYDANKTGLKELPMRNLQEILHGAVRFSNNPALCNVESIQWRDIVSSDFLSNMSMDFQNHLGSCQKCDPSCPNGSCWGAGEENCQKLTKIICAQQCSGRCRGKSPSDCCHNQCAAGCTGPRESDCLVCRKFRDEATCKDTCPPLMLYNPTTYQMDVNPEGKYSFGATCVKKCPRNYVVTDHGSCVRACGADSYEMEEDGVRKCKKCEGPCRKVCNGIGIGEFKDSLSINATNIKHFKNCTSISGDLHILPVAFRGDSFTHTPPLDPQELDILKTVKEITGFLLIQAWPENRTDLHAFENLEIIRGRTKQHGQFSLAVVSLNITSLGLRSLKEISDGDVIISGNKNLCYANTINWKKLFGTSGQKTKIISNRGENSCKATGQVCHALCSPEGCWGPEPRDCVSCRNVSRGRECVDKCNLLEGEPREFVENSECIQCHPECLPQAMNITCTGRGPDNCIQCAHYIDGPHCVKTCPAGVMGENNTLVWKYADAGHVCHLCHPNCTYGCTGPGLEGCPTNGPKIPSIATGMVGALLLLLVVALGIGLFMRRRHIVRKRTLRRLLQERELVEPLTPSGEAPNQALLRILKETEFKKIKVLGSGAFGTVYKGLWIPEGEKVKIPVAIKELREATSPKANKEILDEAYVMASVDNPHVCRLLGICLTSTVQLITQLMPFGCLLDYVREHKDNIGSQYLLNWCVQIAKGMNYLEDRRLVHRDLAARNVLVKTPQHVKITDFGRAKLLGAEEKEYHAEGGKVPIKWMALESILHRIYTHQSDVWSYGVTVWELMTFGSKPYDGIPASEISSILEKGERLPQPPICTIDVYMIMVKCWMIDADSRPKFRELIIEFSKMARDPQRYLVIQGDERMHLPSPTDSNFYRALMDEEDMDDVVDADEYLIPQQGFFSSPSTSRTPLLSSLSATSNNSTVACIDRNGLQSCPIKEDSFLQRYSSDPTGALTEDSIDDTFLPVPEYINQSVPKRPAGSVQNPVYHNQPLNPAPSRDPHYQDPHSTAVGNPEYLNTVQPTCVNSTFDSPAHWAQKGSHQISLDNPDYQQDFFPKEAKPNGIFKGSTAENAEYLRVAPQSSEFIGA
# Method in brief: as §3
# [10] = target: T6, EGFR exon 19del (Ba/F3 cells); test: Inhibitor activity on EGFR phosphorylation (pEGFR AlphaLISA, 2 h), Ba/F3 EGFR exon 19del; details: read-out: Del19 IC50 (pEGFR)
# Method in brief: as §2
# [11] = target: T8, EGFR L858R/C797S (Ba/F3 cells) (Homo sapiens, UniProt P00533, C797S/L858R); test: Inhibitor activity on EGFR phosphorylation (pEGFR AlphaLISA, 2 h), Ba/F3 EGFR L858R/C797S
# T8 construct: expressed in transfected cells; host or cells: Ba/F3 (murine pro-B cells), retroviral transduction, puromycin selection, IL3-independent pool
# T8 sequence (P00533 25-1210 C797S/L858R): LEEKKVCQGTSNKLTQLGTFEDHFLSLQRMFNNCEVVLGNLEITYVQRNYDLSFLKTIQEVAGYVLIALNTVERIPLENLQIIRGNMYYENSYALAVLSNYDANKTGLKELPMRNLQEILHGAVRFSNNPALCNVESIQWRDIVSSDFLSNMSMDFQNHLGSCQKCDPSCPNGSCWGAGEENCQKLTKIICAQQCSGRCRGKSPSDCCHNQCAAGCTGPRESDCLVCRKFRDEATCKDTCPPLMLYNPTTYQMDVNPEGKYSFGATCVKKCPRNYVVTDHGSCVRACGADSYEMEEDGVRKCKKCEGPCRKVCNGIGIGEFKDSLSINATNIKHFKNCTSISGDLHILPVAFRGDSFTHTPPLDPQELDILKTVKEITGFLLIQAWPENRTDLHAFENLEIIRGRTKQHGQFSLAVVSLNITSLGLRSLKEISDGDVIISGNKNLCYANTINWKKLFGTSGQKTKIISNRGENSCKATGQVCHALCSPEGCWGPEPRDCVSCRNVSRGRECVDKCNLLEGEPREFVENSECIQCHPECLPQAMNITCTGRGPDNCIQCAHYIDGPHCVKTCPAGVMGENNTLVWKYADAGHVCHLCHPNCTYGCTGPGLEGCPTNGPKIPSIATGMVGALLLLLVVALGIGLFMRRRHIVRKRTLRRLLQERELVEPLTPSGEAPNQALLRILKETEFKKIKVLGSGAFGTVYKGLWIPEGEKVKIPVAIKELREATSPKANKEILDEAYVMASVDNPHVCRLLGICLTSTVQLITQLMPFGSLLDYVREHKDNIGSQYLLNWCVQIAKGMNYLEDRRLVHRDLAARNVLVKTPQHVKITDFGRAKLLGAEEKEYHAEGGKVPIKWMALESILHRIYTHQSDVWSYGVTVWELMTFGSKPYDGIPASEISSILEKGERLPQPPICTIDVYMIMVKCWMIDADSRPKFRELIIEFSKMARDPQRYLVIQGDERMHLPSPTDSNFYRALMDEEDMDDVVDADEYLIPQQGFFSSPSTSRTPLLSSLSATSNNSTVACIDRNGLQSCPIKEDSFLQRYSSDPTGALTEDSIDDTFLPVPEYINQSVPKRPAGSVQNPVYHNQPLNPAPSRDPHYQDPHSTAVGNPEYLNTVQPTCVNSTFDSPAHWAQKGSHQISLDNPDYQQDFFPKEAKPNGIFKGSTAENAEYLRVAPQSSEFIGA
# Method in brief: as §2
# EGFR L858R (Ba/F3 cells) [12] = target: T7, EGFR L858R (Ba/F3 cells); test: Inhibitor activity on EGFR phosphorylation (pEGFR AlphaLISA, 2 h), Ba/F3 EGFR L858R
# Method in brief: as §2
# [13] = target: T8, EGFR L858R/C797S (Ba/F3 cells); test: Inhibitor activity on EGFR-dependent cell growth (CellTiter-Glo, 72 h), Ba/F3 EGFR L858R/C797S; details: read-out: BaF3 L858R/C797S IC50
# Method in brief: as §3
pIC50 [1],pIC50 (EGFR WT (Ba/F3 cells)),pIC50 (EGFR (CUTO14 cells)),pIC50 [2],pIC50 [3],pIC50 [4],pIC50 [5],pIC50 [6],pIC50 [7],pIC50 [8],pIC50 (EGFR L858R (Ba/F3 cells) [9]),pIC50 [10],pIC50 [11],pIC50 (EGFR L858R (Ba/F3 cells) [12]),pIC50 [13],Structure (SMILES)
> 7.00,> 7.00,6.00 to 7.00,> 7.00,> 7.00,> 7.00,> 7.00,6.00 to 7.00,> 7.00,,,,,,,"COc1c(Cl)cccc1Nc1c(-c2ccnc(Nc3cnn(CC(F)F)c3)n2)[nH]c2c1C(=O)NCC2 [compound 514, 3-[(3-chloro-2-methoxyphenyl)amino]-2-(2-{[1-(2,2-difluoroethyl)pyrazol-4-yl]amino}pyrimidin-4-yl)-1H,5H,6H,7H-pyrrolo[3,2-c]pyridin-4-one]"
> 7.00,,> 7.00,> 7.00,> 7.00,> 7.00,> 7.00,> 7.00,> 7.00,,,,,,,"C=CC(=O)N1CCC2(CC1)CNC(=O)c1c2[nH]c(-c2ccnc3ccc(OC)nc23)c1Nc1cccc(F)c1OC [Compound 160, 1-acryloyl-3′-((3-fluoro-2-methoxyphenyl)amino)-2′-(6-methoxy-1,5-naphthyridin-4-yl)-5′,6′-dihydrospiro[piperidine-4,7′-pyrrolo[3,2-c]pyridin]-4′(1′H)-one]"
> 7.00,> 7.00,> 7.00,> 7.00,> 7.00,> 7.00,> 7.00,> 7.00,> 7.00,,,,,,,COc1ncc2nccc(-c3[nH]c4c(c3Nc3cccc(Cl)c3OC)C(=O)NCC4)c2n1 [compound 408]
> 7.00,6.00 to 7.00,> 7.00,> 7.00,> 7.00,> 7.00,> 7.00,> 7.00,> 7.00,,,,,,,"COc1c(Cl)cccc1Nc1c(-c2ccnc(Nc3cnnn3C)n2)[nH]c2c1C(=O)NCC2 [compound 512, 3-[(3-chloro-2-methoxyphenyl)amino]-2-{2-[(3-methyl-1,2,3-triazol-4-yl)amino]pyrimidin-4-yl}-1H,5H,6H,7H-pyrrolo[3,2-c]pyridin-4-one]"
> 7.00,> 7.00,> 7.00,> 7.00,> 7.00,> 7.00,> 7.00,> 7.00,> 7.00,> 7.00,> 7.00,,,,,"COc1c(Cl)cccc1Nc1c(-c2ccnc(Nc3ccn(CC(F)F)n3)n2)[nH]c2c1C(=O)NCC2 [compound 515, 3-[(3-chloro-2-methoxyphenyl)amino]-2-(2-{[1-(2,2-difluoroethyl)pyrazol-3-yl]amino}pyrimidin-4-yl)-1H,5H,6H,7H-pyrrolo[3,2-c]pyridin-4-one]"
,6.00 to 7.00,> 7.00,> 7.00,> 7.00,,6.00 to 7.00,> 7.00,> 7.00,,,,,,,"COc1c(Cl)cccc1Nc1c(-c2ccnc(N)n2)[nH]c2c1C(=O)NCC2 [Compound 148, 2-(2-aminopyrimidin-4-yl)-3-((3-chloro-2-methoxyphenyl)amino)-1,5,6,7-tetrahydro-4H-pyrrolo[3,2-c]pyridin-4-one]"
> 7.00,6.00 to 7.00,> 7.00,,,> 7.00,> 7.00,> 7.00,,> 7.00,> 7.00,> 7.00,> 7.00,> 7.00,> 7.00,"COc1c(F)cccc1Nc1c(-c2ccnc(C)n2)[nH]c2c1C(=O)NCC2C[C@H]1COCCO1 (single isomer, unassigned) [Compound 606]"
> 7.00,> 7.00,> 7.00,> 7.00,> 7.00,> 7.00,> 7.00,> 7.00,> 7.00,,,,,,,"COCC[C@@H]1CNC(=O)c2c1[nH]c(-c1ccnc(N)n1)c2Nc1cccc(Cl)c1OC [Compound 726, (7R)-2-(2-aminopyrimidin-4-yl)-3-[(3-chloro-2-methoxyphenyl)amino]-7-(2-methoxyethyl)-1H,5H,6H,7H-pyrrolo[3,2-c]pyridin-4 one]"
> 7.00,6.00 to 7.00,> 7.00,,,> 7.00,> 7.00,> 7.00,,> 7.00,> 7.00,> 7.00,> 7.00,> 7.00,> 7.00,"COc1c(F)cccc1Nc1c(-c2ccnc(C)n2)[nH]c2c1C(=O)NCC2C[C@@H]1COCCO1 (single isomer, unassigned) [Compound 604]"
> 7.00,6.00 to 7.00,> 7.00,> 7.00,> 7.00,> 7.00,,> 7.00,> 7.00,,,,,,,"COc1c(Cl)cccc1Nc1c(-c2ccnc3c(N)noc23)[nH]c2c1C(=O)NCC2 [compound 524, 2-{3-amino-[1,2]oxazolo[4,5-b]pyridin-7-yl}-3-[(3-chloro-2-methoxyphenyl)amino]-1H,5H,6H,7H-pyrrolo[3,2-c]pyridin-4-one]"
